Inhibition data for two compounds are collected here from ChEMBL document CHEMBL4385643, “Design of a brain-penetrant CDK4/6 inhibitor for glioblastoma” (Bioorg Med Chem Lett, 2019).

Assay [1] has as its target Activin receptor type-2B (Homo sapiens) (UniProt Q13705). Briefly: Inhibition of tracer 178 binding to recombinant human GST-tagged ACVR2B catalytic domain (185 to 488 residues) expressed in baculovirus at 0.1 uM measured after 60 mins by Lanthascreen assay. Background: In TR-FRET formats the signal depends on donor and acceptor labels being close together.
Assay [2] deals with RAC-alpha serine/threonine-protein kinase (Homo sapiens) (UniProt P31749). Briefly: Inhibition of recombinant full length human His-tagged AKT1 expressed in baculovirus expression system at 0.1 uM using serine/threonine-06 peptide as substrate incubated for 60 mins by Z'-LYTE assay relative to control.
For assay [3], the target named is Activin receptor type-1 (Homo sapiens) (UniProt Q04771). Briefly: Inhibition of tracer 236 binding to recombinant human GST-tagged ALK2 catalytic domain (145 to 509 residues) expressed in baculovirus at 0.1 uM measured after 60 mins by Lanthascreen assay relative to control.
Sequence of Activin receptor type-1 (Homo sapiens) (Q04771 whole entry, the tested form may be a part): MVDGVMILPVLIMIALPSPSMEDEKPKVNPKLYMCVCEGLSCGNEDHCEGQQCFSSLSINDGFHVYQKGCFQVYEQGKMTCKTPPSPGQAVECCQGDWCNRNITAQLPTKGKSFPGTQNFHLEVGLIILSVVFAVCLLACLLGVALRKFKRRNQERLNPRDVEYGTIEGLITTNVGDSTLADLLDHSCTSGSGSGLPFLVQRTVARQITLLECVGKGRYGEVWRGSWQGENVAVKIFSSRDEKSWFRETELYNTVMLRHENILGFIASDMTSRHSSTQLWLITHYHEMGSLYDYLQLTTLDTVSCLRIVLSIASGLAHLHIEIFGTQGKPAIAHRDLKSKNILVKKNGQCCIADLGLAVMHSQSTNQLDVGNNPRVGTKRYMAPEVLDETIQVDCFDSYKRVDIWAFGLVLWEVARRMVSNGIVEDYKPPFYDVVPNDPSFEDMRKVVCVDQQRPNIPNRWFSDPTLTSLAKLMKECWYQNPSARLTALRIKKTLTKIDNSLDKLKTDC
Assay [4] deals with Tyrosine-protein kinase receptor UFO (Homo sapiens) (UniProt P30530). Briefly: Inhibition of recombinant full length human GST-tagged AXL expressed in insect expression system at 0.1 uM using tyrosine-6 peptide as substrate incubated for 60 mins by Z'-LYTE assay relative to control.
In assay [5] the target is Cyclin-dependent kinase 5/CDK5 activator 1 (Homo sapiens) (UniProt Q00535+Q15078). Briefly: Inhibition of recombinant full length human GST/His-tagged CDK5/p25 expressed in baculovirus expression system at 0.1 uM using serine/threonine-12 peptide as substrate incubated for 60 mins by Z'-LYTE assay relative to control.
The target in assay [6] is Casein kinase I isoform alpha (Homo sapiens) (UniProt P48729). Briefly: Inhibition of recombinant full length human GST-tagged CK1alpha1 expressed in baculovirus expression system at 0.1 uM using serine/threonine-11 peptide as substrate incubated for 60 mins by Z'-LYTE assay relative to control.
Assay [7] concerns the target Dual specificity tyrosine-phosphorylation-regulated kinase 1A (Homo sapiens) (UniProt Q13627). Briefly: Inhibition of recombinant full length human GST-tagged DYRK1A expressed in baculovirus expression system at 0.1 uM using serine/threonine-18 peptide as substrate incubated for 60 mins by Z'-LYTE assay relative to control.
The target of assay [8] is Mitogen-activated protein kinase 1 (Homo sapiens) (UniProt P28482). Briefly: Inhibition of recombinant full length human GST-tagged ERK2 expressed in Escherichia coli expression system at 0.1 uM using serine/threonine-3 peptide as substrate incubated for 60 mins by Z'-LYTE assay relative to control.
The target of assay [9] is Ephrin type-A receptor 7 (Homo sapiens) (UniProt Q15375). Briefly: Inhibition of tracer 236 binding to recombinant human His-tagged EPHA7 (579 to 998 residues) expressed in baculovirus expression system at 0.1 uM measured after 60 mins by Lanthascreen assay relative to control.
The target in assay [10] is Receptor tyrosine-protein kinase erbB-4 (Homo sapiens) (UniProt Q15303). Briefly: Inhibition of recombinant human GST-tagged ERBB4 catalytic domain (708 to 993 residues) expressed in baculovirus expression system at 0.1 uM using tyrosine-1 peptide as substrate incubated for 60 mins by Z'-LYTE assay relative to control.
Assay [11] addresses Beta-adrenergic receptor kinase 1 (Homo sapiens) (UniProt P25098). Briefly: Inhibition of recombinant full length human His-tagged GRK2 expressed in baculovirus expression system at 0.1 uM using serine/threonine-16 peptide as substrate incubated for 60 mins by Z'-LYTE assay relative to control.
Assay [12] concerns the target Interleukin-1 receptor-associated kinase 4 (Homo sapiens) (UniProt Q9NWZ3). Briefly: Inhibition of recombinant full length human His-tagged IRAK4 expressed in baculovirus expression system at 0.1 uM using serine/threonine-7 peptide as substrate incubated for 60 mins by Z'-LYTE assay relative to control.
The target in assay [13] is Tyrosine-protein kinase JAK1 (Homo sapiens) (UniProt P23458). Briefly: Inhibition of recombinant human GST-tagged JAK1 catalytic domain (866 to 1154 residues) expressed in baculovirus expression system at 0.1 uM using tyrosine-6 peptide as substrate incubated for 60 mins by Z'-LYTE assay relative to control.
Assay [14] has as its target Tyrosine-protein kinase Lyn (Homo sapiens) (UniProt P07948). Briefly: Inhibition of recombinant full length human LYN at 0.1 uM using tyrosine-2 peptide as substrate incubated for 60 mins by Z'-LYTE assay relative to control.
Assay [15] deals with Mitogen-activated protein kinase kinase kinase kinase 4 (Homo sapiens) (UniProt O95819). Briefly: Inhibition of recombinant human GST-tagged MAP4K4 catalytic domain (1 to 328 residues) expressed in baculovirus expression system at 0.1 uM using serine/threonine-7 peptide as substrate incubated for 60 mins by Z'-LYTE assay relative to control.
The target of assay [16] is MAP kinase-activated protein kinase 3 (Homo sapiens) (UniProt Q16644). Briefly: Inhibition of recombinant full length human His-tagged MAPKAPK3 expressed in baculovirus expression system at 0.1 uM using serine/threonine-4 peptide as substrate incubated for 60 mins by Z'-LYTE assay relative to control.
Assay [17] addresses Serine/threonine-protein kinase 3 (Homo sapiens) (UniProt Q13188). Briefly: Inhibition of recombinant full length human GST-tagged MST2 expressed in baculovirus expression system at 0.1 uM using serine/threonine-7 peptide as substrate incubated for 60 mins by Z'-LYTE assay relative to control.
Assay [18] addresses Myosin light chain kinase, smooth muscle (Homo sapiens) (UniProt Q15746). Briefly: Inhibition of tracer 236 binding to recombinant full length human GST-tagged MYLK expressed in baculovirus expression system at 0.1 uM measured after 60 mins by Lanthascreen assay relative to control.
Assay [19] deals with Protein kinase C epsilon type (Homo sapiens) (UniProt Q02156). Briefly: Inhibition of recombinant full length human GST-tagged PKCepsilon expressed in insect expression system at 0.1 uM using serine/threonine-7 peptide as substrate incubated for 60 mins by Z'-LYTE assay relative to control.
Assay [20] has as its target MAP kinase-activated protein kinase 5 (Homo sapiens) (UniProt Q8IW41). Briefly: Inhibition of recombinant full length human His-tagged PRAK expressed in baculovirus expression system at 0.1 uM using serine/threonine-4 peptide as substrate incubated for 60 mins by Z'-LYTE assay relative to control.
Assay [21] addresses Serine/threonine-protein kinase SIK2 (Homo sapiens) (UniProt Q9H0K1). Briefly: Inhibition of recombinant full length human GST-tagged SIK2 expressed in baculovirus expression system at 0.1 uM using serine/threonine-25 peptide as substrate incubated for 60 mins by Z'-LYTE assay relative to control.
The target of assay [22] is Serine/threonine-protein kinase 16 (Homo sapiens) (UniProt O75716). Briefly: Inhibition of tracer 236 binding to recombinant full length human His-tagged STK16 expressed in baculovirus expression system at 0.1 uM measured after 60 mins by Lanthascreen assay relative to control.
In assay [23] the target is Mitogen-activated protein kinase 12 (Homo sapiens) (UniProt P53778). Briefly: Inhibition of recombinant full length human His-tagged p38gamma expressed in baculovirus expression system at 0.1 uM using serine/threonine-3 peptide as substrate incubated for 60 mins by Z'-LYTE assay relative to control.
Sequence of Mitogen-activated protein kinase 12 (Homo sapiens) (P53778 whole entry): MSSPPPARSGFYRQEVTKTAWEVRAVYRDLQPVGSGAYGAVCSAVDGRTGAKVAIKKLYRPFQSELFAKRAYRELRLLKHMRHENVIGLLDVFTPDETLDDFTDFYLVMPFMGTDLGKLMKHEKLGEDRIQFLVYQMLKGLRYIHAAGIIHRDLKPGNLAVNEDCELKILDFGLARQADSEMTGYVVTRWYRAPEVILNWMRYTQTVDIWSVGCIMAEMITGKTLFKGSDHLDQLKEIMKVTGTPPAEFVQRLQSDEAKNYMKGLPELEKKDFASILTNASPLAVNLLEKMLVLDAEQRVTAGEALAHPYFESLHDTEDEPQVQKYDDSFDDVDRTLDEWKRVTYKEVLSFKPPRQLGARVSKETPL
In assay [24] the target is Myosin light chain kinase (Homo sapiens) (UniProt Q32MK0). Briefly: Inhibition of tracer 236 binding to recombinant full length human GST-tagged MYLK3 expressed in baculovirus expression system at 0.1 uM measured after 60 mins by Lanthascreen assay relative to control.

Sequence of Myosin light chain kinase, smooth muscle (Homo sapiens) (Q15746 whole entry): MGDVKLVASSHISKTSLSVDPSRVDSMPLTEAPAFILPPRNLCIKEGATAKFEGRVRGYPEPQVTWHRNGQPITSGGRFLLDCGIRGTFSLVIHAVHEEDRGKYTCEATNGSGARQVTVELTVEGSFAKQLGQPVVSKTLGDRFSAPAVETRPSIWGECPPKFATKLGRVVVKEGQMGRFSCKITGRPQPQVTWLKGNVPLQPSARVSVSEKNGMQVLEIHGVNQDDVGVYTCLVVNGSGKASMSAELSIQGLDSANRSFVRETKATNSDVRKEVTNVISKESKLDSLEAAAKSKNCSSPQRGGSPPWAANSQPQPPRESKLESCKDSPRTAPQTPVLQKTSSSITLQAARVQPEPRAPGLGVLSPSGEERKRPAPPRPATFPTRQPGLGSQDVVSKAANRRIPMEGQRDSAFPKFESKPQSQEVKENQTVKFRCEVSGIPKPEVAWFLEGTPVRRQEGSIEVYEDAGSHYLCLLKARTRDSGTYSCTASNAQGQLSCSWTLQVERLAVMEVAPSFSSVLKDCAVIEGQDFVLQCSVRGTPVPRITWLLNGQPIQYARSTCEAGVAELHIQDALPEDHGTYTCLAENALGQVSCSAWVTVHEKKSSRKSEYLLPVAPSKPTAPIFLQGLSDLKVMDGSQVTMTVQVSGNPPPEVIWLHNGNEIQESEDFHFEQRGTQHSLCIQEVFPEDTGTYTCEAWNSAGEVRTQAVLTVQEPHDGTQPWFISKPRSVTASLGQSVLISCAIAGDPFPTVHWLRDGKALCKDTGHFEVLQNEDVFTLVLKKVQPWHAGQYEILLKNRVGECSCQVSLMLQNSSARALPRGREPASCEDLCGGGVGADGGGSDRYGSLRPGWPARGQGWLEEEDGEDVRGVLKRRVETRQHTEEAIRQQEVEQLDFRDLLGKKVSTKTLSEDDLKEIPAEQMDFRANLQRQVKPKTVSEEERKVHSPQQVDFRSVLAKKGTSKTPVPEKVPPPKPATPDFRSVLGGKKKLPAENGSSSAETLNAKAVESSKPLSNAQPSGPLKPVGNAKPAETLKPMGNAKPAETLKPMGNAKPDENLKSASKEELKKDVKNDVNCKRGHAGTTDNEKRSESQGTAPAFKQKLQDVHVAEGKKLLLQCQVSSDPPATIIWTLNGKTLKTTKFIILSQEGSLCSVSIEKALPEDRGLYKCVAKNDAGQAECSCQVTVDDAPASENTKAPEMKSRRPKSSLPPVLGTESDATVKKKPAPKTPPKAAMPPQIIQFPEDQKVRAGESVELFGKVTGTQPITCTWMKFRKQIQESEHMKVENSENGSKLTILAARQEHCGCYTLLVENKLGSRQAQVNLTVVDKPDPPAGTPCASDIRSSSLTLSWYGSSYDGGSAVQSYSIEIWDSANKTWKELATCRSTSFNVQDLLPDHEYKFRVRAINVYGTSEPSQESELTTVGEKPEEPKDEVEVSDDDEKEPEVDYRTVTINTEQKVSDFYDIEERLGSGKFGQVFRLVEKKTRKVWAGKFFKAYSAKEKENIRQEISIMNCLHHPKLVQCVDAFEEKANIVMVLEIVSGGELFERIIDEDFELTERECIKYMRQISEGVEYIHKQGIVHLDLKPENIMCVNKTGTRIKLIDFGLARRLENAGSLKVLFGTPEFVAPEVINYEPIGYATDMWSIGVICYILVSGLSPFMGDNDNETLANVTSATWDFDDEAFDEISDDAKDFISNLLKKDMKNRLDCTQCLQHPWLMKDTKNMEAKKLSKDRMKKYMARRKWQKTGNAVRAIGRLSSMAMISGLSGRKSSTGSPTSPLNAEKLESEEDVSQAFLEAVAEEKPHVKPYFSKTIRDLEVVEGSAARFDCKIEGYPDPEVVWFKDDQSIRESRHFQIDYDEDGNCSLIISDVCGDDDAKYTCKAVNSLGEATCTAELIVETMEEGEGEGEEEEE
Sequence of Interleukin-1 receptor-associated kinase 4 (Homo sapiens) (Q9NWZ3 whole entry, the tested form may be a part): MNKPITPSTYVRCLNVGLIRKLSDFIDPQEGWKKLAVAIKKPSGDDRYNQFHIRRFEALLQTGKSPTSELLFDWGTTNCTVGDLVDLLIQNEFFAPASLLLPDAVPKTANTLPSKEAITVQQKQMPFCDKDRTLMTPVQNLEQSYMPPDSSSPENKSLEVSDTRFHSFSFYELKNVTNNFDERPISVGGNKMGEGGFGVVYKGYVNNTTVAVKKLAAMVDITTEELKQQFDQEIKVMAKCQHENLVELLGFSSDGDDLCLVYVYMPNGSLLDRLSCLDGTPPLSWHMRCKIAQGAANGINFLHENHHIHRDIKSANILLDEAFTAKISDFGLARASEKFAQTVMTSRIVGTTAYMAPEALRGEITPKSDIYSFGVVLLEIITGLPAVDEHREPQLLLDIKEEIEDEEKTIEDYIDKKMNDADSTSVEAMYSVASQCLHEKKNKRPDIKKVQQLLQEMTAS
Sequence of Beta-adrenergic receptor kinase 1 (Homo sapiens) (P25098 whole entry): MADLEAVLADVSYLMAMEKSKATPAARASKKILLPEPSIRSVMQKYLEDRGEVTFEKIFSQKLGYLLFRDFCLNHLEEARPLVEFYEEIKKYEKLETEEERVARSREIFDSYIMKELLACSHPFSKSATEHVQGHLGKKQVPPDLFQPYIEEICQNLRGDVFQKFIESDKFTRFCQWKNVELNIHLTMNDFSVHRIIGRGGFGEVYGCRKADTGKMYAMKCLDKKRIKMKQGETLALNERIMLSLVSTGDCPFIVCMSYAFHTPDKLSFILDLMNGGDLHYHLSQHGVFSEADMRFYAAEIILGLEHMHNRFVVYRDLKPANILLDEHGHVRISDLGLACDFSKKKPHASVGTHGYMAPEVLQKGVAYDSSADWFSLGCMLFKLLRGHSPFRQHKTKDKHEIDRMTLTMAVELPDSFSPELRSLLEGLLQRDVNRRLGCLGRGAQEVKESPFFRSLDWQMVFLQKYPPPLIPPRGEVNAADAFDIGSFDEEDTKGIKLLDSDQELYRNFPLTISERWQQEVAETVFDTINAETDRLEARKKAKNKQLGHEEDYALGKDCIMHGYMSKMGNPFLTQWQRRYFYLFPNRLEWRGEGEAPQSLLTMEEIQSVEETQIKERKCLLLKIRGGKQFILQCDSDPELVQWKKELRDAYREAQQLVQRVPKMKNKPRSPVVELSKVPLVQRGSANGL
Sequence of MAP kinase-activated protein kinase 5 (Homo sapiens) (Q8IW41 whole entry): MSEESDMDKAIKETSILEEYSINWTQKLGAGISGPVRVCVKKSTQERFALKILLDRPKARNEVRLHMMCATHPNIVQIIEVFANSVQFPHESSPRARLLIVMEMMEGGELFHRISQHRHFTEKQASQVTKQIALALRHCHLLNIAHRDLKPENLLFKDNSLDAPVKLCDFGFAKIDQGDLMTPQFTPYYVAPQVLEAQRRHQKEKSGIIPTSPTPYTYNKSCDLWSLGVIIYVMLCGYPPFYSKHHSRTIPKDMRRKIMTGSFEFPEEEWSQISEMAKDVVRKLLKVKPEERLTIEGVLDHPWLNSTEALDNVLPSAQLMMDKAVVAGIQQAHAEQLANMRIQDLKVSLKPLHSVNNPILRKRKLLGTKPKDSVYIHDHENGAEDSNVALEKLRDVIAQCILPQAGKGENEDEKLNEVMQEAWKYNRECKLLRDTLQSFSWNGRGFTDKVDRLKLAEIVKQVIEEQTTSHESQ
Sequence of Serine/threonine-protein kinase 3 (Homo sapiens) (Q13188 whole entry): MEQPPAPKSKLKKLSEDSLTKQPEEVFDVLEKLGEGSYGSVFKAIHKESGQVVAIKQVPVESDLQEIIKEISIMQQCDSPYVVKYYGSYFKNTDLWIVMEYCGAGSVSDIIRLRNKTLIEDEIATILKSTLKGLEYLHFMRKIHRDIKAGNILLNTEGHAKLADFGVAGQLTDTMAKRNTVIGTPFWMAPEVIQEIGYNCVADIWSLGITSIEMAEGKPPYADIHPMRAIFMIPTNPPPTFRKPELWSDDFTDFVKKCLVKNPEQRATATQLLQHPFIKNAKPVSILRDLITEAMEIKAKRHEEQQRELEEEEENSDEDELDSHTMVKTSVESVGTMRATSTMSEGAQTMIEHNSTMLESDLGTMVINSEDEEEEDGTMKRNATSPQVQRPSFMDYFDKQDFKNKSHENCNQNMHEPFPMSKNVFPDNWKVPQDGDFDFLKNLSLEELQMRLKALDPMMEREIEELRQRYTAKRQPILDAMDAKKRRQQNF

The inhibition is the change of the read-out against control, counted positive when it falls. For `CCN1CC2(C1)CN(c1ccc(Nc3ncc(F)c(-c4cnn5c4[C@H](C)CCCC5)n3)nc1)C2`, the inhibition in assay [1] stood at 4.5%; in assay [2], 2%; in assay [3], 28%; in [4], 11.5%; in assay [5] it was 72%; in [6], 1.5%. In addition, the inhibition in assay [7] is 26.5%; in [8], 6%; in assay [9], 5.5%; in assay [10] it was -6.5%; in assay [11], 0.5%; in assay [12], 3.5%. Besides, the inhibition in assay [13] is 5%; in assay [14] it was 7%; in [15] it was 39%; in assay [16], 1%; in assay [17], 4%; in assay [18], 5.5%. The inhibition came to 14.5% in assay [19]; 13.5% in assay [20]; 26.5% in assay [21]; 29.5% in assay [22]; 16% in assay [23]; 19.5% in assay [24].

Consider `CCN1CCN(Cc2ccc(Nc3ncc(F)c(-c4cc(F)c5nc(C)n(C(C)C)c5c4)n3)nc2)CC1` [ABEMACICLIB], for which the inhibition was 5.4% in assay [1]; 6.5% in [2]; 30.5% in assay [3]; 15% in [4]; 60.8% in assay [5]; 4.5% in assay [6]. The inhibition was 92.5% in assay [7]; 8% in [8]; 11.7% in [9]; 3% in assay [10]; 0% in assay [11]; 9% in assay [12]. Further, the inhibition in [13] worked out at 2%; in assay [14], 6%; in assay [15], 89.5%; in [16], 9%; in assay [17] it was 13%; in assay [18], 14.7%. For the same compound, the inhibition in assay [19] turned out to be 22.5%; in assay [20] it was 5%; in [21], 6%; in [22], 91.5%; in assay [23], 5%; in [24], 30.8%.
